Laboratory results published in article PMC6897945, “CytA, a reductase in the cytorhodin biosynthesis pathway, inactivates anthracycline drugs in Streptomyces” (Communications Biology, 2019).
Values after ≈ are worked out from the molar mass of the structure shown. Like-named read-outs stand apart in the source and are kept apart here.

Tests used:
[1] = system: B. subtilis BS01; experiment: Antibacterial activity, broth dilution MIC; assay type: cell-based; details: Bacillus subtilis, BS01, read-out: MIC values, BS
Method: (§1) The antibacterial activities of compounds 1–13 were assessed using twofold serial dilutions of antibacterial agents in MH broth, according to previously reported standard methods provided by Clinical and Laboratory Standards Institute (CLSI)[30]. These compounds were tested for their antibacterial activities against Bacillus subtilis BS01, Staphyloccocus aureus ATCC 29213, Staphyloccocus aureus 745524, Bacillus thuringiensis BT01, and Enterococcus faecalis ATCC 29212 using a broth dilution method.

[2] = system: B. thuringiensis BT01; experiment: Antibacterial activity, broth dilution MIC; assay type: cell-based; details: Bacillus thuringiensis, BT01, read-out: MIC values, BT
Method: as §1

[3] = system: E. faecalis ATCC 29212; experiment: Antibacterial activity, broth dilution MIC; assay type: cell-based; details: Enterococcus faecalis, ATCC29212, read-out: MIC values, EF
Method: as §1

[4] = system: Staphylococcus aureus 745524; experiment: Antibacterial activity, broth dilution MIC; assay type: cell-based; details: Staphylococcus aureus, 745524, read-out: MIC values, SA2
Method: as §1

[5] = system: Staphylococcus aureus ATCC 29213; experiment: Antibacterial activity, broth dilution MIC; assay type: cell-based; details: Staphylococcus aureus, ATCC29213, read-out: MIC values, SA1
Method: as §1

[6] = Cytotoxic activity, MTT method; assay type: cell-based; details: human
From the text: (§2) All data were obtained in triplicate and are presented as means.

[7] = system: MDA-MB-468 human triple negative breast adenocarcinoma cell line; experiment: Cytotoxic activity, MTT method; assay type: cell-based; details: MDA-MB-468, read-out: Cytotoxic activities IC50, MDA-MB-468
From the text: as §2

[8] = system: Streptomyces sp. SCSIO 1666 WT; experiment: Growth inhibition zone assay; assay type: cell-based; details: WT producer, paper discs impregnated with compound, 1 μg
From the text: (§3) We also noted that the ∆cytA mutant strain accumulated small amounts (80~100-fold lower than WT producer) of the immediate biosynthetic precursors of cosmomycins A (3) and B (4). The in vitro antimicrobial activities of compounds 1–13 against a panel of gram-positive bacteria (Table 2) provided some insight into the possible physiological significance of CytA-catalyzed reductions. Furthermore, we had observed that the ΔcytA mutant strain is clearly impaired relative to the WT strain upon addition of 6 or 7 as potential substrates. To evaluate this effect, we probed the sensitivity of Streptomyces sp. SCSIO 1666 to 6 and 7 in an inhibition zone assay (Fig. 3). A clear inhibition zone (16 mm) using the ΔcytA mutant plate was observed when supplemented with 1 μg of 6 or 7. […] That CytA production endows cosmomycin resistance provides strong evidence that the cytA gene directly confers Streptomyces. sp. SCSIO 1666 with the ability to protect itself from the effects by self-resistance to cosmomycins C and D.
(§4) Fig. 3 Sensitivity of Streptomyces sp. SCSIO 1666 toward cosmomycin C (6) and cosmomycin D (7) (1 μg) as determined by growth inhibition zone assays. […] TEXT PRINTED IN THE PICTURE: 6: ΔcytA mutant strain: 16 mm DOUBTS OF THE COPYIST ABOUT THIS PICTURE: 6, ΔcytA mutant strain: the small yellow print reads 16 mm, but it could be 15 or 18 mm / 6: the yellow double arrow marked 16 mm spans the zone around disc 6. The picture prints no measure name, so it may be the inhibition zone diameter or only a scale mark

[9] = system: Streptomyces sp. SCSIO 1666 ΔcytA mutant strain; experiment: Growth inhibition zone assay; assay type: cell-based; details: Streptomyces, read-out: inhibition zone
From the text: as §3, §4

[10] = system: CytA; experiment: In vitro CytA enzymatic activity assay (HPLC analysis); assay type: biochemical, Streptomyces sp. SCSIO 1666; details: absence of O2 (anaerobic); 25 μM substrate, 0.5 μM CytA, 20 μM NADH, 37 °C
From the text: To explore the biochemical activity of CytA in vitro, the cytA gene was cloned into the NdeI and EcoRI sites of the pET28a (+) vector and the resulting vector was transformed into E. coli BL21(DE3) using previously described methods. CytA was overexpressed as an N-terminally His6-tagged soluble protein and purified to homogeneity by Ni affinity chromatography (Fig. 2a). […] The activity of CytA was first investigated using substrates 6–9 and ε-rhodomycinone (10) under aerobic conditions. Reactions with CytA were conducted at 37 °C in a volume of 100 μL consisting of 50 mM Tris-Cl (pH 8.0), 25 μM substrate, 0.5 μM CytA, and 20 μM NADH. Reactions with boiled CytA served as controls; all reactions were carried out in parallel to ensure reaction consistency. Reactions were terminated by addition of twofold volume of methanol. As expected, CytA failed, under aerobic conditions to modify any of the substrates 6–10. […] On the heels of this finding we then determined the kinetic parameters of CytA using 6 and 7 as substrates.
Enzymatic reactions were carried out under anaerobic conditions in an anaerobic workstation (Don Whitley Scientific A45) containing a gas phase of N2/H2/CO2 (80:10: 10%, by vol.). ^1H, ^13C, and 2D (COSY, HMQC, HMBC and NOESY) NMR spectra were recorded at 25 °C with an Avance 700 MHz spectrometer instruments (Bruker). […]

[11] = system: Staphylococcus aureus; set-up: method as in earlier work; details: 6 vs 3, 7 vs 4; cited from earlier work
[12] = Huvec-12 normal cell line, read-out: Cytotoxic activities IC50, Huvec-12
[13] = L02 normal cell line, read-out: Cytotoxic activities IC50, L02

SMILES | MIC [1] [µg/mL] | MIC [2] [µg/mL] | MIC [3] [µg/mL] | MIC [4] [µg/mL] | MIC [5] [µg/mL] | IC50 [6, 12] [nM] | IC50 [6, 13] [nM] | IC50 [7] [nM] | growth inhibition near paper discs [8] | zone of inhibition at 1 µg/disc [9] [mm] | conversion by CytA (C-7 reduction/deglycosylation) [10] | fold more active against Staphylococcus aureus than reduced congeners 3 and 4, respectively [11] [fold]
CC[C@@]1(O)C[C@H](O[C@H]2C[C@H](N(C)C)[C@H](O[C@H]3C[C@H](O)[C@H](O[C@H]4CC[C@H](O)[C@H](C)O4)[C@H](C)O3)[C@H](C)O2)c2c(O)c3c(c(O)c2[C@H]1O[C@H]1C[C@H](N(C)C)[C@H](O[C@H]2C[C@H](O)[C@H](O[C@H]4CC[C@H](O)[C@H](C)O4)[C@H](C)O2)[C@H](C)O1)C(=O)c1cccc(O)c1C3=O [Compound 7, cosmomycin D] | 0.03 (≈ 0.0252 µM) | 0.125 (≈ 0.105 µM) | 0.002 (≈ 0.00168 µM) | 0.005 (≈ 0.0042 µM) | 0.01 (≈ 0.00841 µM) | 300 | 130 | 1840 | little to no growth inhibition | 16 | readily convert | > 100
CC[C@@]1(O)C[C@H](O[C@H]2C[C@H](N(C)C)[C@@H](O[C@H]3C[C@H](O)[C@@H](O[C@H]4CC[C@H](O)[C@H](C)O4)[C@H](C)O3)[C@H](C)O2)c2c(O)c3c(c(O)c2[C@H]1O[C@H]1C[C@H](N(C)C)[C@@H](O[C@H]2CC[C@H](O[C@H]4CC[C@H](O)[C@H](C)O4)[C@H](C)O2)[C@H](C)O1)C(=O)c1cccc(O)c1C3=O [Compound 6, cosmomycin C] | 0.06 (≈ 0.0511 µM) | 0.125 (≈ 0.107 µM) | 0.001 (≈ 0.000852 µM) | 0.005 (≈ 0.00426 µM) | 0.03 (≈ 0.0256 µM) | 290 | 100 | 500 | little to no growth inhibition | 16 | readily convert | > 100
